Results: PubChem BioAssay (NCI)
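Where inhibition never reached the appropriate level, the endpoint shown equals the highest concentration tested. Otherwise, values were interpolated linearly from a five-concentration, 48-hour dose response in 96-well plates. TGI denotes the concentration required for complete inhibition of growth.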

Legend:
Experiment in all cases: DTP human tumour cell line panel, 48 h
[1] = test system: NCI-H460 lung
[2] = test system: NCI-H226 lung
[3] = test system: TK-10 renal
[4] = test system: SW-620 colon
[5] = test system: 786-0 renal
[6] = test system: SK-OV-3 ovarian
[7] = test system: M19-MEL melanoma
[8] = test system: LOX IMVI melanoma
[9] = test system: HL-60(TB) leukemia
[10] = test system: SR leukemia
[11] = test system: OVCAR-8 ovarian
[12] = test system: COLO 205 colon
[13] = test system: NCI-H23 lung
[14] = test system: DMS 114 small cell lung
[15] = test system: SF-295 CNS
[16] = test system: LXFL 529 NSCLC
[17] = test system: M14 melanoma
[18] = test system: KM12 colon
[19] = test system: ACHN renal
[20] = test system: SF-539 CNS
[21] = test system: IGROV1 ovarian
[22] = test system: A498 renal
[23] = test system: A549 NSCLC
[24] = test system: EKVX NSCLC
[25] = test system: SK-MEL-28 melanoma
[26] = test system: SF-268 CNS
[27] = test system: K-562 leukemia
[28] = test system: HOP-18 NSCLC
[29] = test system: U251 CNS
[30] = test system: SNB-19 CNS
[31] = test system: CCRF-CEM leukemia
[32] = test system: SK-MEL-5 melanoma
[33] = test system: DLD-1 colon
[34] = test system: DMS 273 small cell lung
[35] = test system: RPMI-8226 leukemia
[36] = test system: MOLT-4 leukemia
[37] = test system: OVCAR-3 ovarian
[38] = test system: UO-31 renal
[39] = test system: OVCAR-5 ovarian
[40] = test system: HT29 colon
[41] = test system: OVCAR-4 ovarian
[42] = test system: UACC-62 melanoma
[43] = test system: RXF 393 renal
[44] = test system: SNB-78 CNS
[45] = test system: SNB-75 CNS
[46] = test system: XF 498 CNS
[47] = test system: SK-MEL-2 melanoma
[48] = test system: HOP-62 NSCLC
[49] = test system: UACC-257 melanoma
[50] = test system: HOP-92 NSCLC
[51] = test system: MALME-3M melanoma
[52] = test system: HCC-2998 colon
[53] = test system: HCT-15 colon
[54] = test system: NCI-H522 lung
[55] = test system: CAKI-1 renal
[56] = test system: HCT-116 colon
[57] = test system: SN12C renal
[58] = test system: KM20L2 colon

With `O=C1C=C(c2[nH]c3ccccc3c2C2=CC(=O)c3ccccc3C2=O)C(=O)c2ccccc21` the TGI [1] was > 100 µM, the TGI [2] was > 100 µM and the TGI [3] was > 100 µM. The TGI [4] was > 100 µM, the TGI [5] was > 100 µM and the TGI [6] was > 100 µM. The TGI [7] was 35.4 µM, the TGI [8] was 59 µM and the TGI [9] was 44.4 µM. The TGI [10] was 57.1 µM, the TGI [11] was > 100 µM and the TGI [12] was > 100 µM. The TGI [13] was > 100 µM, the TGI [14] was 36.6 µM and the TGI [15] was > 100 µM. The TGI [16] was > 100 µM, the TGI [17] was > 100 µM and the TGI [18] was > 100 µM. For the same molecule, the TGI [19] was > 100 µM, the TGI [20] was > 100 µM and the TGI [21] was 95.6 µM. The TGI [22] was > 100 µM, the TGI [23] was > 100 µM and the TGI [24] was > 100 µM. The TGI [25] was > 100 µM, the TGI [26] was > 100 µM and the TGI [27] was 60.1 µM. The TGI [28] was > 100 µM, the TGI [29] was > 100 µM and the TGI [30] was > 100 µM. The TGI [31] was 43.9 µM, the TGI [32] was > 100 µM and the TGI [33] was > 100 µM. For the same molecule, the TGI [34] was > 100 µM, the TGI [35] was > 100 µM and the TGI [36] was 35.7 µM. The TGI [37] was 88.3 µM, the TGI [38] was > 100 µM and the TGI [39] was > 100 µM. The TGI [40] was > 100 µM, the TGI [41] was > 100 µM and the TGI [42] was 71.3 µM. For the same molecule, the TGI [43] was > 100 µM, the TGI [44] was > 100 µM and the TGI [45] was 57.6 µM.
`COC1=CC(=O)[C@]2(C)[C@H](C1=O)C(C)[C@H]2c1ccc(OC)cc1` (stereo not given in full) was tested, and the TGI [1] was > 100 µM, the TGI [2] was > 100 µM and the TGI [3] was > 100 µM. For the same molecule, the TGI [4] was > 100 µM, the TGI [46] was > 100 µM and the TGI [5] was > 100 µM. For the same molecule, the TGI [47] was > 100 µM, the TGI [6] was > 100 µM and the TGI [7] was > 100 µM. For the same molecule, the TGI [8] was > 100 µM, the TGI [9] was > 100 µM and the TGI [10] was > 100 µM. The TGI [11] was > 100 µM, the TGI [12] was > 100 µM and the TGI [48] was > 100 µM. The TGI [13] was > 100 µM, the TGI [15] was > 100 µM and the TGI [16] was > 100 µM. The TGI [17] was > 100 µM, the TGI [18] was > 100 µM and the TGI [19] was > 100 µM. The TGI [20] was > 100 µM, the TGI [21] was > 100 µM and the TGI [22] was > 100 µM. The TGI [23] was > 100 µM, the TGI [24] was > 100 µM and the TGI [25] was > 100 µM. The TGI [26] was > 100 µM, the TGI [27] was > 100 µM and the TGI [29] was > 100 µM. The TGI [30] was > 100 µM, the TGI [49] was > 100 µM and the TGI [50] was > 100 µM. For the same molecule, the TGI [51] was > 100 µM, the TGI [31] was > 100 µM and the TGI [32] was > 100 µM. For the same molecule, the TGI [33] was > 100 µM, the TGI [34] was > 100 µM and the TGI [35] was > 100 µM. For the same molecule, the TGI [36] was > 100 µM, the TGI [37] was > 100 µM and the TGI [38] was > 100 µM. The TGI [39] was > 100 µM, the TGI [52] was > 100 µM and the TGI [53] was > 100 µM. The TGI [40] was > 100 µM, the TGI [54] was > 100 µM and the TGI [41] was > 100 µM. The TGI [42] was > 100 µM, the TGI [43] was > 100 µM and the TGI [55] was > 100 µM. The TGI [44] was > 100 µM and the TGI [45] was > 100 µM.
With `CN=c1ss/c(=N\C(=S)N(C)C)n1-c1ccccc1` the TGI [1] was > 100 µM, the TGI [2] was > 100 µM and the TGI [56] was > 100 µM. The TGI [3] was > 100 µM, the TGI [4] was > 100 µM and the TGI [5] was > 100 µM. For the same molecule, the TGI [47] was > 100 µM, the TGI [6] was > 100 µM and the TGI [7] was > 100 µM. For the same molecule, the TGI [8] was > 100 µM, the TGI [57] was > 100 µM and the TGI [9] was > 100 µM. The TGI [10] was > 100 µM, the TGI [58] was > 100 µM and the TGI [11] was > 100 µM. The TGI [12] was > 100 µM, the TGI [48] was > 100 µM and the TGI [13] was > 100 µM. The TGI [14] was > 100 µM, the TGI [15] was > 100 µM and the TGI [16] was > 100 µM. The TGI [17] was > 100 µM, the TGI [18] was > 100 µM and the TGI [19] was > 100 µM. For the same molecule, the TGI [20] was > 100 µM, the TGI [21] was > 100 µM and the TGI [22] was > 100 µM. For the same molecule, the TGI [23] was > 100 µM, the TGI [24] was > 100 µM and the TGI [25] was > 100 µM. The TGI [26] was > 100 µM, the TGI [27] was > 100 µM and the TGI [28] was > 100 µM. For the same molecule, the TGI [29] was > 100 µM, the TGI [30] was > 100 µM and the TGI [49] was > 100 µM. For the same molecule, the TGI [50] was > 100 µM, the TGI [51] was > 100 µM and the TGI [31] was > 100 µM. For the same molecule, the TGI [32] was > 100 µM, the TGI [33] was > 100 µM and the TGI [34] was > 100 µM. The TGI [35] was > 100 µM, the TGI [36] was > 100 µM and the TGI [37] was > 100 µM. For the same molecule, the TGI [38] was > 100 µM, the TGI [39] was > 100 µM and the TGI [52] was > 100 µM. For the same molecule, the TGI [53] was > 100 µM, the TGI [40] was > 31.6 µM and the TGI [54] was > 28.5 µM. The TGI [41] was > 100 µM, the TGI [42] was > 100 µM and the TGI [43] was > 82.1 µM. The TGI [55] was > 100 µM, the TGI [44] was > 100 µM and the TGI [45] was 42.6 µM.
